Reference: ChEMBL document CHEMBL3102823, “Tetramic acid analogues produced by coculture of Saccharopolyspora erythraea with Fusarium pallidoroseum” (2014)
Calls of active or inactive are those of the source. The rule behind the calls is not given here.

Tests used:
NCI60 = experiment: (§1) Cytotoxicity against human NCI60 cells assessed as growth inhibition by SRB assay; assay type: functional
Staphylococcus aureus = experiment: Antibacterial activity against Staphylococcus aureus by Kirby-Bauer disk diffusion assay; assay type: functional
CCRF-CEM = experiment: Cytotoxicity against human CCRF-CEM cells assessed as growth inhibition by SRB assay; assay type: functional
[1] = system: Saccharopolyspora erythraea; experiment: Antibacterial activity against Saccharopolyspora erythraea by Kirby-Bauer disk diffusion assay
[2] = as §1; assay type: functional

Row | Structure (SMILES) | growth inhibition (GI) (NCI60) | MIC (Staphylococcus aureus) | GI50 (CCRF-CEM) | MIC [1] | GI50 [2] | %max (Staphylococcus aureus) | Activity [1] | Activity (Staphylococcus aureus)
1 | C/C=C/[C@@H]1C=C[C@@H]2C[C@H](C)CC[C@H]2[C@]1(C)/C(O)=C1/C(=O)[C@H](CO)N(C)C1=O | Active | <1.25 µg | 0.144 µM | 2.5 µg | – | – | – | –
2 | C/C=C/[C@@H]1C=C[C@@H]2C[C@@](C)(O)CC[C@H]2[C@]1(C)C(=O)C1=C(O)[C@H](CO)N(C)C1=O | – | – | – | – | > 20 µM | inactive | inactive | –
3 | C/C=C/[C@@H]1C=C[C@@H]2C[C@H](CO)CC[C@H]2[C@]1(C)C(=O)C1=C(O)[C@H](CO)NC1=O | – | – | – | – | > 20 µM | – | inactive | inactive
4 | CN1C(=O)C(C(=O)[C@@]2(C)[C@@H]3CC[C@@H](CO)C[C@H]3C=C[C@H]2/C=C/CO)=C(O)C1CO (mixture of isomers) | – | – | – | – | > 20 µM | – | inactive | inactive
5 | C/C=C/C1C=C[C@@H]2C[C@H](CO)CC[C@H]2[C@]1(C)C(=O)C1=C(O)[C@H](CO)N(C)C1=O (some centres undefined) | – | – | – | – | > 20 µM | – | – | –
